Test results taken from the supplement of paper PMC11208160.

Assay: recombinant barcode read abundance after kanamycin selection (control-corrected) (log10(CPM+1)); higher = more efficient recombination; sequences stand for … in AGTGCAGAGAAAATCGGCCAGTTTTCTCTGCCTGCAGTCCGCATGCCGT…ATTTATGCAGCGGACTGCCTTTCTCCCAAAGTGATAAACCGGACAGTATCATGGACCGGTTTTCCCGGTAATCCGTATTTGCAAGGTTGGTTTCACT; site = the 11-nt target
Method in brief: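 In a pooled screen in E. coli, targets were paired with target-binding loops of the IS621 bridge RNA. Each oligo carried a promoter, a target, a barcode and the first 104 bridge RNA bases driven by J23119, and was Gibson-cloned into a vector holding the remaining 73 bp and a T7-inducible recombinase before co-electroporation with a donor plasmid. Duplicate platings went onto chloramphenicol/ampicillin LB agar as the control or onto chloramphenicol/ampicillin/kanamycin with 0.1 mM IPTG. Recombination efficiency is the averaged, control-corrected count per million of barcodes at recombinant junctions, given as log10(CPM+1).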
In the case of “GTCGCCCTTTGGGTTCTAACCTGTTGCTAAG [GTCGCCCCTTA_LTGcore_TT_RTGcore_CT] (site GTCGCCCCTTA) (LTG core: TT, RTG core: CT)”, the “recombinant barcode read abundance (log10)” value is reported as 0.137.
With “TAAGAATAATGGGTTCTAACCTGTTGCCTAG [TAAGAATCTAG_LTGcore_AA_RTGcore_CT] (site TAAGAATCTAG) (LTG core: AA, RTG core: CT)” the “recombinant barcode read abundance (log10)” value was 0.232.
For “TAAGAATATTGGGTTCTAACCTGTTGCCTAG [TAAGAATCTAG_LTGcore_AT_RTGcore_CT] (site TAAGAATCTAG) (LTG core: AT, RTG core: CT)”, the “recombinant barcode read abundance (log10)” value was 0.124.
In the case of “TAAGAATCATGGGTTCTAACCTGTTGCCTTG [TAAGAATCTAG_LTGcore_CA_RTGcore_CA] (site TAAGAATCTAG) (LTG core: CA, RTG core: CA)”, the “recombinant barcode read abundance (log10)” value is reported as 1.03.
For “TAAGAATCGTGGGTTCTAACCTGTTGCCTCG [TAAGAATCTAG_LTGcore_CG_RTGcore_CG] (site TAAGAATCTAG) (LTG core: CG, RTG core: CG)”, the “recombinant barcode read abundance (log10)” value was 0.0781.
With “TAAGAATCTTGGGTTCTAACCTGTTGCCTAG [TAAGAATCTAG_LTGcore_CT_RTGcore_CT] (site TAAGAATCTAG) (LTG core: CT, RTG core: CT)” the “recombinant barcode read abundance (log10)” value was 1.3.
With “TAAGAATCTTGGGTTCTAACCTGTTGCCTAT [TAAGAATCTAG_LTGcore_CT_RTGcore_AT] (site TAAGAATCTAG) (LTG core: CT, RTG core: AT)” the “recombinant barcode read abundance (log10)” value was 0.0438.
For “TAAGAATCTTGGGTTCTAACCTGTTGCCTTA [TAAGAATCTAG_LTGcore_CT_RTGcore_TA] (site TAAGAATCTAG) (LTG core: CT, RTG core: TA)”, the “recombinant barcode read abundance (log10)” value was 0.138.
For “TAAGAATCTTGGGTTCTAACCTGTTGCCTTC [TAAGAATCTAG_LTGcore_CT_RTGcore_GA] (site TAAGAATCTAG) (LTG core: CT, RTG core: GA)”, the “recombinant barcode read abundance (log10)” value was 0.243.
With “TAAGAATGATGGGTTCTAACCTGTTGCCTTC [TAAGAATCTAG_LTGcore_GA_RTGcore_GA] (site TAAGAATCTAG) (LTG core: GA, RTG core: GA)” the “recombinant barcode read abundance (log10)” value was 0.176.
With “TAAGAATTGTGGGTTCTAACCTGTTGCCTAG [TAAGAATCTAG_LTGcore_TG_RTGcore_CT] (site TAAGAATCTAG) (LTG core: TG, RTG core: CT)” the “recombinant barcode read abundance (log10)” value was 0.153.
With “TAAGAATTTTGGGTTCTAACCTGTTGCCTAA [TAAGAATCTAG_LTGcore_TT_RTGcore_TT] (site TAAGAATCTAG) (LTG core: TT, RTG core: TT)” the “recombinant barcode read abundance (log10)” value was 0.156.
For “TAGAGGGATTGGGTTCTAACCTGTTGCGGAT [TAGAGGGCTCC_LTGcore_AT_RTGcore_AT] (site TAGAGGGCTCC) (LTG core: AT, RTG core: AT)”, the “recombinant barcode read abundance (log10)” value was 0.237.
With “TAGAGGGCCTGGGTTCTAACCTGTTGCGGAG [TAGAGGGCTCC_LTGcore_CC_RTGcore_CT] (site TAGAGGGCTCC) (LTG core: CC, RTG core: CT)” the “recombinant barcode read abundance (log10)” value was 2.4.
For “TAGAGGGCTTGGGTTCTAACCTGTTGCGGAT [TAGAGGGCTCC_LTGcore_CT_RTGcore_AT] (site TAGAGGGCTCC) (LTG core: CT, RTG core: AT)”, the “recombinant barcode read abundance (log10)” value was 0.779.
With “TAGAGGGCTTGGGTTCTAACCTGTTGCGGCA [TAGAGGGCTCC_LTGcore_CT_RTGcore_TG] (site TAGAGGGCTCC) (LTG core: CT, RTG core: TG)” the “recombinant barcode read abundance (log10)” value was 1.66.
For “TAGAGGGGCTGGGTTCTAACCTGTTGCGGGC [TAGAGGGCTCC_LTGcore_GC_RTGcore_GC] (site TAGAGGGCTCC) (LTG core: GC, RTG core: GC)”, the “recombinant barcode read abundance (log10)” value was 0.0588.
With “TAGAGGGGTTGGGTTCTAACCTGTTGCGGAC [TAGAGGGCTCC_LTGcore_GT_RTGcore_GT] (site TAGAGGGCTCC) (LTG core: GT, RTG core: GT)” the “recombinant barcode read abundance (log10)” value was 0.189.
In the case of “TAGAGGGTATGGGTTCTAACCTGTTGCGGAG [TAGAGGGCTCC_LTGcore_TA_RTGcore_CT] (site TAGAGGGCTCC) (LTG core: TA, RTG core: CT)”, the “recombinant barcode read abundance (log10)” value is reported as 0.204.
In the case of “TAGAGGGTATGGGTTCTAACCTGTTGCGGTA [TAGAGGGCTCC_LTGcore_TA_RTGcore_TA] (site TAGAGGGCTCC) (LTG core: TA, RTG core: TA)”, the “recombinant barcode read abundance (log10)” value is reported as 0.481.
In the case of “TCGCGACACTGGGTTCTAACCTGTTGCCGGT [TCGCGACCTCG_LTGcore_AC_RTGcore_AC] (site TCGCGACCTCG) (LTG core: AC, RTG core: AC)”, the “recombinant barcode read abundance (log10)” value is reported as 0.102.
With “TCGCGACAGTGGGTTCTAACCTGTTGCCGCT [TCGCGACCTCG_LTGcore_AG_RTGcore_AG] (site TCGCGACCTCG) (LTG core: AG, RTG core: AG)” the “recombinant barcode read abundance (log10)” value was 0.128.
With “TCGCGACATTGGGTTCTAACCTGTTGCCGAG [TCGCGACCTCG_LTGcore_AT_RTGcore_CT] (site TCGCGACCTCG) (LTG core: AT, RTG core: CT)” the “recombinant barcode read abundance (log10)” value was 0.0137.
In the case of “TCGCGACCATGGGTTCTAACCTGTTGCCGTG [TCGCGACCTCG_LTGcore_CA_RTGcore_CA] (site TCGCGACCTCG) (LTG core: CA, RTG core: CA)”, the “recombinant barcode read abundance (log10)” value is reported as 0.139.
In the case of “TCGCGACCCTGGGTTCTAACCTGTTGCCGGG [TCGCGACCTCG_LTGcore_CC_RTGcore_CC] (site TCGCGACCTCG) (LTG core: CC, RTG core: CC)”, the “recombinant barcode read abundance (log10)” value is reported as 0.353.
With “TCGCGACCTTGGGTTCTAACCTGTTGCCGCC [TCGCGACCTCG_LTGcore_CT_RTGcore_GG] (site TCGCGACCTCG) (LTG core: CT, RTG core: GG)” the “recombinant barcode read abundance (log10)” value was 0.0891.
With “TCGCGACCTTGGGTTCTAACCTGTTGCCGTT [TCGCGACCTCG_LTGcore_CT_RTGcore_AA] (site TCGCGACCTCG) (LTG core: CT, RTG core: AA)” the “recombinant barcode read abundance (log10)” value was 0.0373.
In the case of “TCGCGACGTTGGGTTCTAACCTGTTGCCGAG [TCGCGACCTCG_LTGcore_GT_RTGcore_CT] (site TCGCGACCTCG) (LTG core: GT, RTG core: CT)”, the “recombinant barcode read abundance (log10)” value is reported as 0.391.
With “TCTACCCACTGGGTTCTAACCTGTTGCTGGT [TCTACCCCTCA_LTGcore_AC_RTGcore_AC] (site TCTACCCCTCA) (LTG core: AC, RTG core: AC)” the “recombinant barcode read abundance (log10)” value was 0.045.
In the case of “TCTACCCATTGGGTTCTAACCTGTTGCTGAT [TCTACCCCTCA_LTGcore_AT_RTGcore_AT] (site TCTACCCCTCA) (LTG core: AT, RTG core: AT)”, the “recombinant barcode read abundance (log10)” value is reported as 0.00785.
For “TCTACCCCCTGGGTTCTAACCTGTTGCTGGG [TCTACCCCTCA_LTGcore_CC_RTGcore_CC] (site TCTACCCCTCA) (LTG core: CC, RTG core: CC)”, the “recombinant barcode read abundance (log10)” value was 0.0201.
With “TCTACCCCTTGGGTTCTAACCTGTTGCTGAA [TCTACCCCTCA_LTGcore_CT_RTGcore_TT] (site TCTACCCCTCA) (LTG core: CT, RTG core: TT)” the “recombinant barcode read abundance (log10)” value was 0.241.
For “TCTACCCCTTGGGTTCTAACCTGTTGCTGGG [TCTACCCCTCA_LTGcore_CT_RTGcore_CC] (site TCTACCCCTCA) (LTG core: CT, RTG core: CC)”, the “recombinant barcode read abundance (log10)” value was 0.28.
In the case of “TCTACCCCTTGGGTTCTAACCTGTTGCTGTG [TCTACCCCTCA_LTGcore_CT_RTGcore_CA] (site TCTACCCCTCA) (LTG core: CT, RTG core: CA)”, the “recombinant barcode read abundance (log10)” value is reported as 0.182.
In the case of “TCTACCCTGTGGGTTCTAACCTGTTGCTGAG [TCTACCCCTCA_LTGcore_TG_RTGcore_CT] (site TCTACCCCTCA) (LTG core: TG, RTG core: CT)”, the “recombinant barcode read abundance (log10)” value is reported as 0.0669.
In the case of “TCTACCCTGTGGGTTCTAACCTGTTGCTGCA [TCTACCCCTCA_LTGcore_TG_RTGcore_TG] (site TCTACCCCTCA) (LTG core: TG, RTG core: TG)”, the “recombinant barcode read abundance (log10)” value is reported as 0.0126.
For “TGATACCATTGGGTTCTAACCTGTTGCGTAT [TGATACCCTAC_LTGcore_AT_RTGcore_AT] (site TGATACCCTAC) (LTG core: AT, RTG core: AT)”, the “recombinant barcode read abundance (log10)” value was 0.0803.
For “TGATACCCCTGGGTTCTAACCTGTTGCGTGG [TGATACCCTAC_LTGcore_CC_RTGcore_CC] (site TGATACCCTAC) (LTG core: CC, RTG core: CC)”, the “recombinant barcode read abundance (log10)” value was 0.351.
In the case of “TGATACCCTTGGGTTCTAACCTGTTGCGTGC [TGATACCCTAC_LTGcore_CT_RTGcore_GC] (site TGATACCCTAC) (LTG core: CT, RTG core: GC)”, the “recombinant barcode read abundance (log10)” value is reported as 1.67.
With “TGATACCCTTGGGTTCTAACCTGTTGCGTGT [TGATACCCTAC_LTGcore_CT_RTGcore_AC] (site TGATACCCTAC) (LTG core: CT, RTG core: AC)” the “recombinant barcode read abundance (log10)” value was 0.0827.
With “TGATACCCTTGGGTTCTAACCTGTTGCGTTC [TGATACCCTAC_LTGcore_CT_RTGcore_GA] (site TGATACCCTAC) (LTG core: CT, RTG core: GA)” the “recombinant barcode read abundance (log10)” value was 0.335.
With “TGATACCCTTGGGTTCTAACCTGTTGCGTTT [TGATACCCTAC_LTGcore_CT_RTGcore_AA] (site TGATACCCTAC) (LTG core: CT, RTG core: AA)” the “recombinant barcode read abundance (log10)” value was 0.666.
For “TGATACCGCTGGGTTCTAACCTGTTGCGTAG [TGATACCCTAC_LTGcore_GC_RTGcore_CT] (site TGATACCCTAC) (LTG core: GC, RTG core: CT)”, the “recombinant barcode read abundance (log10)” value was 0.164.
